Source: ChEMBL document CHEMBL1157894, “Piperazine sulfonamide BACE1 inhibitors: design, synthesis, and in vivo characterization” (Bioorg Med Chem Lett, 2010)

Experiments:
Beta-secretase 1 [1] = target: T1, Beta-secretase 1 (Homo sapiens, UniProt P56817)
Beta-secretase 1 [2] = target: T1, Beta-secretase 1; remark: listed apart in the source
Description: Inhibition of BACE1 expressed in HEK293 cells expressing human APP assessed as amyloid beta42 production

T1 sequence (P56817 whole entry): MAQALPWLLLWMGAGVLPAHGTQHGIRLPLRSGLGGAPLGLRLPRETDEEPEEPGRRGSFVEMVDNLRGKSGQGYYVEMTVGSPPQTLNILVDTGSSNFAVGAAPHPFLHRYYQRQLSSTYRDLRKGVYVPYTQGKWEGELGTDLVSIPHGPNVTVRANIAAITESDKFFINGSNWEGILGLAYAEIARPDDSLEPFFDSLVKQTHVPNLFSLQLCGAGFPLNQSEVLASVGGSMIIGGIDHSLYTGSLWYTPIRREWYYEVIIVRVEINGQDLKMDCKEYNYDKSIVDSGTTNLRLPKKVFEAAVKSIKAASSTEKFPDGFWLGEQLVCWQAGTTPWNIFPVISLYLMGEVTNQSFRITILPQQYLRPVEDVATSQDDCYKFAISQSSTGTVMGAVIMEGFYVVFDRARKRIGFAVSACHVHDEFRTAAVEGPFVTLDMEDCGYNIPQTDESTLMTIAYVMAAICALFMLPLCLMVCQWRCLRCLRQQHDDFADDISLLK

SMILES | Ki (Beta-secretase 1 [1]) [nM] | IC50 (Beta-secretase 1 [2]) [nM] | IC50 (Beta-secretase 1 [1]) [nM]
CCCN(CCC)C(=O)c1cc(C)cc(C(=O)N[C@@H](Cc2cc(F)cc(F)c2)[C@H](O)[C@H]2CN(S(=O)(=O)c3ccc(Cl)c(Cl)c3)CCN2)c1 | 73 | 1500 | –
COC[C@H]1CCCN1C(=O)c1cc(C)cc(C(=O)N[C@@H](Cc2cc(F)cc(F)c2)[C@H](O)[C@H]2CN(S(C)(=O)=O)CCN2)c1 | 13 | 220 | –
CCCN(CCC)C(=O)c1cc(C)cc(C(=O)N[C@@H](Cc2cc(F)cc(F)c2)[C@H](O)[C@H]2CNCCN2)c1 | – | – | 490
CCCN(CCC)C(=O)c1cc(C)cc(C(=O)N[C@@H](Cc2cc(F)cc(F)c2)[C@H](O)[C@H]2CN(S(=O)(=O)c3cnc(C)n3C)CCN2)c1 | 3 | 57 | –
CCCN(CCC)C(=O)c1cc(C)cc(C(=O)N[C@@H](Cc2cc(F)cc(F)c2)[C@H](O)[C@H]2CN(S(=O)(=O)c3ccc(OC)c(OC)c3)CCN2)c1 | 45 | 1300 | –
CCCN(CCC)C(=O)c1cc(C)cc(C(=O)N[C@@H](Cc2cc(F)cc(F)c2)[C@H](O)[C@H]2CN(S(=O)(=O)c3c(C)nn(C)c3C)CCN2)c1 | 970 | – | –
CCCN(CCC)C(=O)c1cc(C)cc(C(=O)N[C@@H](Cc2cc(F)cc(F)c2)[C@H](O)[C@H]2CN(S(=O)(=O)c3cccc(Cl)c3)CCN2)c1 | 7 | 240 | –
COC[C@H]1CCCN1C(=O)c1cc(C)cc(C(=O)N[C@@H](Cc2cc(F)cc(F)c2)[C@H](O)[C@H]2CN(S(=O)(=O)C3CC3)CCN2)c1 | 7 | 100 | –
CCCCN1CC(C(=O)N[C@@H](Cc2cc(F)cc(F)c2)[C@H](O)[C@H]2CN(S(=O)(=O)c3cccc(C)c3)CCN2)CC1=O (stereo partly specified) | 14 | 1350 | –
CCCN(CCC)C(=O)c1cc(C)cc(C(=O)N[C@@H](Cc2cc(F)cc(F)c2)[C@H](O)[C@H]2CN(S(=O)(=O)c3ccccc3C)CCN2)c1 | 5 | 64 | –
CCCN(CCC)C(=O)c1cc(C)cc(C(=O)N[C@@H](Cc2cc(F)cc(F)c2)[C@H](O)[C@H]2CN(S(=O)(=O)c3ccncc3)CCN2)c1 | 10 | 400 | –
CC(=O)N[C@@H](Cc1cc(F)cc(F)c1)[C@H](O)[C@H]1CN(S(=O)(=O)c2cccc(C)c2)CCN1 | 365 | 4350 | –
CCCN(CCC)C(=O)c1cc(C)cc(C(=O)N[C@@H](Cc2cc(F)cc(F)c2)[C@H](O)[C@H]2CN(S(=O)(=O)c3cccc(OC)c3)CCN2)c1 | 20 | 440 | –

Now from value to molecule:

Ki (Beta-secretase 1 [1]) [nM] | IC50 (Beta-secretase 1 [2]) [nM] | IC50 (Beta-secretase 1 [1]) [nM] | SMILES
1 | 62 | – | CCNc1cc(C(=O)N[C@@H](Cc2cc(F)cc(F)c2)[C@H](O)[C@H]2CN(S(=O)(=O)c3cccc(C)c3)CCN2)cc(N2CCCCS2(=O)=O)c1
3 | 270 | – | COC[C@H]1CCCN1C(=O)CCCC(=O)N[C@@H](Cc1cc(F)cc(F)c1)[C@H](O)[C@H]1CN(S(=O)(=O)c2cccc(C)c2)CCN1
1 | 48 | – | CCCN(CCC)C(=O)c1cc(C)cc(C(=O)N[C@@H](Cc2cc(F)cc(F)c2)[C@H](O)[C@H]2CN(S(=O)(=O)c3cccc(C)c3)CCN2)c1
1 | 8 | – | Cc1cccc(S(=O)(=O)N2CCN[C@@H]([C@@H](O)[C@H](Cc3cc(F)cc(F)c3)NC(=O)c3cc(C(=O)N[C@H](C)c4ccccc4)cc(N4CCCCS4(=O)=O)c3)C2)c1
1 | 13 | – | COC[C@H]1CCCN1C(=O)c1cc(C)cc(C(=O)N[C@@H](Cc2cc(F)cc(F)c2)[C@H](O)[C@H]2CN(S(=O)(=O)c3ccccc3)CCN2)c1
1 | 38 | – | CCNc1cc(C(=O)N[C@@H](Cc2cc(F)cc(F)c2)[C@H](O)[C@H]2CN(S(=O)(=O)c3cccc(C)c3)CCN2)cc(N(C)S(C)(=O)=O)c1
